# Assay results published in PMC2867956, “Interdomain Interactions Control Ca^2+-Dependent Potentiation in the Cation Channel TRPV4” (PLoS ONE, 2010).
# Entries after “also recorded” stand apart in the source; their conditions may differ. Like-named read-outs stand apart in the source and are kept apart here. No end group written: not given here.
# Key:
# [1] = system: wt TRPV4; experiment: Whole-cell patch clamp, wild type TRPV4; type: cell-based, human
# Excerpt: (§1) (See Methods S1 for details).
# [2] = system: CFP-TRPV4-YFP; conditions: HEK293 cells, Ca^2+-containing buffer; 4α-PMA data not shown; concomitant increase in donor fluorescence
# [3] = system: TRPV4 mutant WIA; experiment: Whole-cell patch clamp, TRPV4 mutant WIA; conditions: 4α-PMA 1 µM, nominally Ca^2+-free; -100 and +100 mV, p = 0.014 and 0.023; n = 8
# Experimental: (§4) Patch clamp recordings were performed on HEK293 cells in the whole cell configuration. Cells were clamped at a potential of −20 mV, and current-voltage (I–V) relations were obtained from voltage ramps from −100 mV to +100 mV. The standard extracellular solution contained 140 mM NaCl, 5 mM CsCl, 2 mM CaCl2, 1 mM MgCl2, 10 mM glucose, and 10 mM HEPES (pH 7.4 with NaOH). In nominally Ca^2+-free solutions, Ca^2+ was omitted. The standard intracellular solution contained 110 mM cesium methanesulfonate, 25 mM CsCl, 2 mM MgCl2, 0.362 mM CaCl2, 1 mM EGTA, and 30 mM HEPES (pH 7.2 with CsOH) with a calculated [Ca^2+] of 100 nM.
# (§5) Patch clamp recordings were performed on HEK293 cells in the whole cell configuration using an EPC10 amplifier and Pulse software (HEKA, Lamprecht, Germany). […] Cells were clamped at a potential of –20 mV, and current-voltage (I-V) relations were obtained from voltage ramps from –100 mV to +100 mV with a duration of 400 ms applied every 4 seconds. Ramp data were acquired with a sampling rate of 20 kHz after filtering at 4 kHz. […] The standard intracellular solution contained 110 mM cesium methanesulfonate, 25 mM CsCl, 2 mM MgCl2, 0.362 mM CaCl2, 1 mM EGTA, and 30 mM HEPES (pH 7.2 with CsOH) with a calculated [Ca^2+] of 100 nM (MaxChelator, Chris Patton, Stanford, USA). […]
# [4] = system: TRPV4 mutant KRA; experiment: Whole-cell patch clamp, TRPV4 mutant KRA; conditions: 4α-PMA 1 µM, nominally Ca^2+-free; -100 and +100 mV, p = 0.012 and 0.007; n = 5
# Experimental: as §4, §5
# [5] = biological target: CaM (UniProt P0DP23); experiment: Fluorescence polarization, CaM binding to carboxyfluorescein-labeled TRPV4 peptides; conditions: 50 mM Tris pH 7.5, 100 mM KCl, 0.1% BSA, triplicate
# Experimental: (§2) Protein interaction experiments were performed in buffers containing 50 mM Tris, pH 7.5, 100 mM KCl, 0.1% BSA and calcium at the indicated concentrations. Calcium concentrations below 50 µM were buffered with HEDTA, EGTA or EDTA at a buffer concentration of 10 mM. CaM concentrations were 10 µM or as indicated; the tracer peptide concentration was 100 nM. Fluorescence anisotropy was measured in a 384-well black multititer plate (Fluotrac 200, Greiner) using a Fusion alpha FP instrument (PerkinElmer) at 1 s reading time per well. Fluorescence polarization (FP) was calculated according to: [drawing 1] with Ipar and Iperp as the fluorescence emission intensities in planes parallel and perpendicular to the excitation plane. FP signals are given as mean±SEM of triplicate measurements in milli-P (mP) units.
# (0.11 MB TIF) Click here for additional data file.
# [6] = system: TRPV4; experiment: FRET acceptor bleaching, full-length TRPV4 N and C termini in HEK293 cells; type: cell-based, human; conditions: extrapolated donor increase at full acceptor photobleaching; unstimulated HEK293; n = 7 (CFP-TRPV4-YFP), 20 and 13 as printed 'respectively'; p<0.0001 versus control
# Excerpt: as §1
# [7] = system: TRPV4 C2 fragment; experiment: AlphaScreen interdomain interaction with C2; type: binding, human
# Excerpt: First, we did a complementation experiment to test whether a CaM molecule that binds to the C2 fragment of TRPV4 through its C-lobe can form an additional interaction with another CaM binding domain thus forming a ternary complex. […] We used an AlphaScreen-based proximity assay (Fig. 2, Methods S1) in which the acceptor beads were coated with the C-terminal fragment C2-Flag, and the donor beads either with the N-terminal CaM binding peptide P2-biotin, or, as a negative control, with C2-biotin. The interaction between the proteins was measured in the presence of increasing CaM concentrations in 100 µM Ca^2+ or 1 mM EGTA (Fig. 3A).
# In an AlphaScreen interaction experiment, donor and acceptor beads were incubated with 10 nM C2-biotin and N2-Flag at concentrations ranging from 30 pM to 1.5 µM, respectively (Fig. 3C).
# (§3) Proteins were expressed in E. coli, affinity purified and biotinylated if applicable (for details see Methods S1). For protein interaction measurements, a proximity assay system based on the AlphaScreen technology (PerkinElmer) was used (see Methods S1). Briefly, streptavidin-coated AlphaScreen donor and anti-Flag acceptor beads at a final concentration of 16.7 µg/ml were incubated in a 384-well plate format (OptiPlate-384, PerkinElmer) with C2-GST-biotin or P2-biotin and the respective Flag-tagged interaction protein at concentrations of 10 nM, if not otherwise indicated. Assay buffer conditions were 50 mM Tris, pH 7.4, 100 mM KCl, and 0.1% BSA. After incubation for 90 min at room temperature, the AlphaScreen output signal was recorded in a Fusion alpha FP instrument (PerkinElmer) at 2 s reading time per well. AlphaScreen signals are given as mean±SEM in counts per second (cps) units.
# The expression plasmids containing the cDNA for CaM or TRPV4 fragments in the pGEX-2TK vector (Amersham) or a modified derivative that contains an in-frame Flag epitope 5’ to the multiple cloning site were transformed into the BL21(DE3) Escherichia coli host, and protein expression was induced by 200 mg/ml IPTG at an OD600 of 0.6. […] The GST-Flag fusion proteins were eluted with 50 mM Tris, pH 8.5, 100 mM KCl, and 10 mM glutathione. […] The purity of all proteins was confirmed by SDS-polyacrylamide gel electrophoresis and Coomassie staining, and the protein concentration determined by the method according to Bradford using an albumin concentration standard. […]
# To establish an improved interaction assay, that allows the quantification of protein interactions on a medium to high throughput scale, a commercially available proximity assay system based on the AlphaScreen (Amplified Luminescent Proximity Homogenous Assay) technology (PerkinElmer) was modified. […]
# [8] = system: TRPV4 C terminus peptide library; experiment: Peptide library overlay, TRPV4 C terminus; type: binding, human; conditions: 20-mer peptides on filter, 100 nM biotinylated protein
# Excerpt: (0.31 MBTIF) Click here for additional data file.
# [9] = biological target: P5 peptide (TRPV4 C-terminal CaM binding site); experiment: Fluorescence polarization, binding of CaM and isolated CaM lobes to labeled P5; design: species or system human; conditions: binding to fluorophore-labeled P5 at 100 µM Ca^2+; tracer 100 nM; pH 7.5
# Experimental: We analyzed the properties of the complex between CaM and C-terminal fragments of the human TRPV4 ortholog, and investigated the structural determinants within the CaM molecule that are involved in binding.
# as §2, with “Tracer peptides were synthesized and coupled to carboxyfluorescein (Dr. Sven Rothemund, Core unit peptide technologies, IZKF, Leipzig). Protein” for “Protein”
# [10] = system: TRPV4 C2 fragment; experiment: AlphaScreen-based CaM interaction assay with C2; type: binding, human
# Experimental: as §3
# The expression plasmids containing the cDNA for CaM or TRPV4 fragments in the pGEX-2TK vector (Amersham) or a modified derivative that contains an in-frame Flag epitope 5’ to the multiple cloning site were transformed into the BL21(DE3) Escherichia coli host, and protein expression was induced by 200 mg/ml IPTG at an OD600 of 0.6. […] The GST-Flag fusion proteins were eluted with 50 mM Tris, pH 8.5, 100 mM KCl, and 10 mM glutathione. The GST-fusion proteins intended for subsequent biotinylation were subjected to an additional wash step with 50 mM HEPES, pH 7.4, 100 mM KCl and eluted with 50 mM HEPES, pH 8.5, 100 mM KCl, and 10 mM glutathione. The purity of all proteins was confirmed by SDS-polyacrylamide gel electrophoresis and Coomassie staining, and the protein concentration determined by the method according to Bradford using an albumin concentration standard. Biotinylation was performed using a 10-fold molar excess of biotinamidocaproate N-hydroxysuccinimide ester (Sigma). After incubation at 4 °C for 12 h, the reaction was stopped by addition of a 10-fold molar excess of NH4Cl and unbound biotin ester removed by extensive dialysis against 50 mM Tris, pH 7.4, 100 mM KCl.
# To establish an improved interaction assay, that allows the quantification of protein interactions on a medium to high throughput scale, a commercially available proximity assay system based on the AlphaScreen (Amplified Luminescent Proximity Homogenous Assay) technology (PerkinElmer) was modified. The assay principle had been originally developed as an enhanced immunoassay and initially termed luminescent oxygen channeling immunoassay (LOCI [1]). […] The resulting emission at a wavelength of 370 nm is further transformed by fluorophores within the bead into a final emission between 520 nm and 620 nm that can be detected by a photomultiplier. […]
# [11] = system: TRPV4; experiment: Whole-cell patch clamp, effect of CaM/CaM mutant overexpression on Ca^2+-dependent TRPV4 current increase; type: cell-based, human
# Excerpt: This mutant may bind and displace endogenous CaM, but, owing to the N-terminal mutation, cannot fully substitute for the wild type molecule.
# as §1
# [12] = labeled peptide 100 nM, CaM 10 µM or as indicated, value is Ca^2+ concentration, read-out: Ca^2+ concentration at half-maximal CaM binding (Ca^2+-dependence, EC50)
molecule,measurement,setting,value
CCCCCCCCCCCCCC(=O)O[C@@H]1[C@@H](C)[C@@]2(O)[C@@H](C=C(CO)C[C@@]3(O)C(=O)C(C)=C[C@@H]23)[C@@H]2C(C)(C)[C@]12OC(C)=O [4α-PMA],current activated by 4α-PMA,"[1]; 4α-PMA 1 µM, nominally Ca^2+-free, wild type, n = 9","slow, small increase in currents"
same,activation of TRPV4,"[1]; nominally Ca^2+-free solutions, HEK293 cells",weak and slow
same,change in FRET fluorescence on stimulation,[2],transient decreases in the FRET
same,current activated by 4α-PMA versus wild type,[3],Significantly larger currents; also recorded: significantly larger than the wild type
same,current activated by 4α-PMA versus wild type,[4],Significantly larger currents; also recorded: significantly larger than the wild type
CC(C)C[C@H](NC(=O)[C@H](CCCNC(=N)N)NC(=O)CNC(=O)[C@@H](NC(=O)[C@@H](NC(=O)[C@H](Cc1c[nH]cn1)NC(=O)[C@H](CO)NC(=O)[C@H](Cc1ccccc1)NC(=O)CN)[C@@H](C)O)C(C)C)C(=O)N[C@@H](CCCNC(=N)N)C(=O)N[C@@H](CCCNC(=N)N)C(=O)N[C@@H](CC(=O)O)C(=O)N[C@@H](CCCNC(=N)N)C(=O)N[C@@H](Cc1c[nH]c2ccccc12)C(=O)N[C@@H](CO)C(=O)N[C@@H](CO)C(=O)N[C@H](C(=O)N[C@H](C(=O)N1CCC[C@H]1C(=O)N[C@@H](CCCNC(=N)N)C(=O)N[C@H](C(=O)N[C@H](C(=O)N[C@@H](CCC(=O)O)C(=O)O)C(C)C)C(C)C)C(C)C)C(C)C [P5],EC50,[5]; [12],3.2 µM
C-V4-Y: TRPV4 with CFP and YFP fused to the N- and C termini,FRET efficiency,[6],14.6±1.1
GRPNLRMKFQGAFRKGVPNP [P1],EC50,[5]; [12],3.6 µM
"N3: N-terminal TRPV4 fragment, residues 114-161, includes P2 (RHHSSDNKRWRKKIIEKQPQSPKAPAPQPPPILKVFNRPILFDIVSRG; UniProt Q9HBA0 114-161, looked up, fragment)",interaction with C2,"[7]; 10 nM C2-biotin, N2-Flag 30 pM to 1.5 µM, N3 data not shown",interdomain interaction could also be shown
same,"overlay binding site, C terminus library",[8],strong interaction was found with a region that corresponds to the CaM binding peptide P5
RSFPVFLRKAFRSGEMVTVGKSSD [P4],EC50,[5]; [12],7.3 µM
same,EC50,"[5]; tracer peptide 100 nM, CaM 0.1 nM to 10 µM, read-out: CaM binding EC50",5 µM
SSDNKRWRKKIIEKQPQSPK [P2],interaction with C2-Flag,"[7]; 100 µM Ca^2+ or 1 mM EGTA, absence of CaM (C2: absence or presence of CaM)",strong constitutive interaction
same,Ca^2+-dependence of P2/C2 interaction,"[7]; no CaM, Ca^2+ 10 nM to 10 mM",already present at 0 Ca^2+ and essentially Ca^2+-insensitive over a wide range of Ca^2+ concentrations
calmodulin [CaM],Kd,[9],0.4 µM
same,EC50,"[10]; AlphaScreen, C2-biotin with CaM-Flag or mutant, 10 nM each, value is Ca^2+ concentration, 50 mM Tris pH 7.4, 100 mM KCl, 0.1% BSA, 90 min room temperature, n = 3 independent experiments in triplicate, read-out: EC50 Ca^2+ concentration for C2 interaction (half maximal binding)",8.8 ± 1 µM
same,AlphaScreen signal of CaM/C2 in EGTA,[10]; CaM-biotin and C2-Flag in 1 mM EGTA,No signal was detected
same,Hill coefficient (common),"[10]; Ca^2+-dependence of C2 binding, common fit for CaM, CaM12 and CaM34, n = 3",2.0
same,binding to TRPV4,[10]; Ca^2+-free buffers for CaM,neither binds to CaM in Ca^2+-free buffers
same,current increase upon addition of Ca^2+ on overexpression,"[11]; HEK293 cells coexpressing TRPV4, 4α-PMA in Ca^2+-free bath, then 2 mM Ca^2+, +100 and -100 mV, CaM12 p = 0.013 and 0.007 compared to CaM overexpression","slightly increased the TRPV4 response to Ca^2+, but the increase is not statistically significant"
same,effect on spontaneous or 4α-PMA-activated currents,"[11]; nominally Ca^2+-free solution, data not shown","had no effect on spontaneous currents, or currents activated by 4α-PMA"
